According to ChEMBL document CHEMBL1138461, “4-Phenyl-7-azaindoles as potent and selective IKK2 inhibitors” (Bioorg Med Chem Lett, 2009):

Key:
[1] = molecular target: T1, Inhibitor of nuclear factor kappa-B kinase subunit alpha (Homo sapiens, UniProt O15111); test: Inhibition of human recombinant IKK1
T1 sequence (O15111 whole entry): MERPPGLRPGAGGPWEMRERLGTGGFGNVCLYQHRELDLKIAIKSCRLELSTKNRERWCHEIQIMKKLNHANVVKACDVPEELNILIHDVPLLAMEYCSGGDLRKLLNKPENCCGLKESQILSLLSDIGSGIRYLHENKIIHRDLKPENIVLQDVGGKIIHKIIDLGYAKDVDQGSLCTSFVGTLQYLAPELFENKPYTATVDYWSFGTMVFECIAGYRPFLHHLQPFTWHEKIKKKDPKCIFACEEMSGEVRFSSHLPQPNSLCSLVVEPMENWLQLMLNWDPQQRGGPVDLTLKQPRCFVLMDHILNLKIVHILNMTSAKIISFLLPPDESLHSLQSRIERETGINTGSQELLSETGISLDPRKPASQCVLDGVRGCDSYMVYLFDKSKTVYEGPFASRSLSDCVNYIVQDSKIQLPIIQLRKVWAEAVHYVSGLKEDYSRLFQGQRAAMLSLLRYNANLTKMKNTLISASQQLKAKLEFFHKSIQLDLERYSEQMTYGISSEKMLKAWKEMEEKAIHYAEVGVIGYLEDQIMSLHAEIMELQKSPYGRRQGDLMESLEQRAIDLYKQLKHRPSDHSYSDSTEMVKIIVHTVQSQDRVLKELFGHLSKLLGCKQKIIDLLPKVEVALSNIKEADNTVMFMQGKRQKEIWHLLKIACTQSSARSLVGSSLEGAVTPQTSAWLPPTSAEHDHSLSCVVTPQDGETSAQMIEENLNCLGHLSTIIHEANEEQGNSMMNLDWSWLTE

[2] = molecular target: T2, Inhibitor of nuclear factor kappa-B kinase subunit beta (Homo sapiens, UniProt O14920); test: Inhibition of human recombinant IKK2
T2 sequence (O14920 whole entry): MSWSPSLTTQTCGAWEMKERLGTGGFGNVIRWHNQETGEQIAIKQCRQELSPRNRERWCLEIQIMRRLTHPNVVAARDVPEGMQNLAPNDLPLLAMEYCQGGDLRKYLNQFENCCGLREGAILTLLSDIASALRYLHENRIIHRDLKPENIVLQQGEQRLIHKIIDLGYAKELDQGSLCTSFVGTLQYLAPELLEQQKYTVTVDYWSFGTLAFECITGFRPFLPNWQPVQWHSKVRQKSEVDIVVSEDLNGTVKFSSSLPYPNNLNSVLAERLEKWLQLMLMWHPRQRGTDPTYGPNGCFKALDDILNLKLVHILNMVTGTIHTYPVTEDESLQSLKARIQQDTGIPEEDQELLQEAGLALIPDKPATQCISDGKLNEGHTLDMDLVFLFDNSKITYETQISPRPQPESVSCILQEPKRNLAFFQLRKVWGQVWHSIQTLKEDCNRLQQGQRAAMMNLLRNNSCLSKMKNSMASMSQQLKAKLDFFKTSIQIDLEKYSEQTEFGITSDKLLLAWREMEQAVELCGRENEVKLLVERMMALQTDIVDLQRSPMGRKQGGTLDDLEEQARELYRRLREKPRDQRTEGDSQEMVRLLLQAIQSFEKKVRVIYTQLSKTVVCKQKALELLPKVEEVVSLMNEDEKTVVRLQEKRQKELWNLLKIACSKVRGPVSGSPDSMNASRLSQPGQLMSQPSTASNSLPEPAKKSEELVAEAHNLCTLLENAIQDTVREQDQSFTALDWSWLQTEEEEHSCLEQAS

[3] = system: A549; test: Inhibition of TNF-alpha-induced NF-kappaB […] activation in human A549 cells; format: functional, cell-based
[4] = molecular target: Rho-associated protein kinase 1 (Homo sapiens, UniProt Q13464); test: Inhibition of human recombinant ROCK1
Sequence of Rho-associated protein kinase 1 (Q13464 whole entry): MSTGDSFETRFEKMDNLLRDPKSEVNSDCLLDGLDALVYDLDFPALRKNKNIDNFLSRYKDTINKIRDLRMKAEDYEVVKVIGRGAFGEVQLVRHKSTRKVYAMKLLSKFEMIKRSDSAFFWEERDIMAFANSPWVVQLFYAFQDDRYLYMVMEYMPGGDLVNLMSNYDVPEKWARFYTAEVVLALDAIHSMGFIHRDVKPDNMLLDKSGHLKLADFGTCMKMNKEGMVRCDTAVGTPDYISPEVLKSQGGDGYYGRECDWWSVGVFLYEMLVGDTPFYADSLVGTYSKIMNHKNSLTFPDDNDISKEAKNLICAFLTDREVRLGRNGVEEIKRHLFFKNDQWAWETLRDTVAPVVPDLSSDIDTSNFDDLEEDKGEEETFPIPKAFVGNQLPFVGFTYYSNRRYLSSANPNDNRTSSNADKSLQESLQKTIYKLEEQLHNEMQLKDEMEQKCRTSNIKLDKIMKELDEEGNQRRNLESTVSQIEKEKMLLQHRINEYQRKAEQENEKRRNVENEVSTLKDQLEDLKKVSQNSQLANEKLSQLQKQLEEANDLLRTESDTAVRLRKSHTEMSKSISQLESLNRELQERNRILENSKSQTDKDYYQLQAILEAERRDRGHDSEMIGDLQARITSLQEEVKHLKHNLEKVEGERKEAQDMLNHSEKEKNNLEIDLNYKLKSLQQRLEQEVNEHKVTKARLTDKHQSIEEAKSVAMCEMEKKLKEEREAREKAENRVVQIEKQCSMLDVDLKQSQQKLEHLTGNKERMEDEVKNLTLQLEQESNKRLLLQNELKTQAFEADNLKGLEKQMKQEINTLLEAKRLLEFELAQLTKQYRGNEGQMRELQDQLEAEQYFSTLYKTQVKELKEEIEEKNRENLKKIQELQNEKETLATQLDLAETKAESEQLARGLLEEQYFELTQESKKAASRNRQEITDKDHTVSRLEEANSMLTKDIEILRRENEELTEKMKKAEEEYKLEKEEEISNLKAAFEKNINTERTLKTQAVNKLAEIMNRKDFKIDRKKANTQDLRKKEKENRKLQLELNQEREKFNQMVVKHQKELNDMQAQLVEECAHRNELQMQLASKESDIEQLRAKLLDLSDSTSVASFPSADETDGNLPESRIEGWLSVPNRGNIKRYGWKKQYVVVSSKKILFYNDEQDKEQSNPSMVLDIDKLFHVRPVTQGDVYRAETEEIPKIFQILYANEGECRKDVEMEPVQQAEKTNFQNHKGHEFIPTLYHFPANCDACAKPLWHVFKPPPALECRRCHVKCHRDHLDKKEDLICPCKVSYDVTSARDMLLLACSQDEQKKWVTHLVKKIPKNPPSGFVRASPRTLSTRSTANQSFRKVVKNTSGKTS

[5] = molecular target: Glycogen synthase kinase-3 beta (Homo sapiens, UniProt P49841); test: Inhibition of GSK3-beta kinase
Sequence of Glycogen synthase kinase-3 beta (P49841 whole entry): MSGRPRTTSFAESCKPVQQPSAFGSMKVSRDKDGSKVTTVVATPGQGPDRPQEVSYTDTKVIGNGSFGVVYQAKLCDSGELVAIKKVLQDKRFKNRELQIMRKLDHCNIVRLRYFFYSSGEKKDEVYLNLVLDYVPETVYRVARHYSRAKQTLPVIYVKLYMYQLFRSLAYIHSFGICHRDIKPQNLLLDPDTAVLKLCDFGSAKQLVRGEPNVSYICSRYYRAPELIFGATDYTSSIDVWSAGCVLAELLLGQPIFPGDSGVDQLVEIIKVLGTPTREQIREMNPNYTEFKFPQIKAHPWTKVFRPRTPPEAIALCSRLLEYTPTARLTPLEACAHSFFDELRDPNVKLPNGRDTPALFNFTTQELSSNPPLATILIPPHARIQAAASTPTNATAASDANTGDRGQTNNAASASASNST

[6] = molecular target: Aurora kinase B (Homo sapiens, UniProt Q96GD4); test: Inhibition of Aurora B kinase
Sequence of Aurora kinase B (Q96GD4 whole entry): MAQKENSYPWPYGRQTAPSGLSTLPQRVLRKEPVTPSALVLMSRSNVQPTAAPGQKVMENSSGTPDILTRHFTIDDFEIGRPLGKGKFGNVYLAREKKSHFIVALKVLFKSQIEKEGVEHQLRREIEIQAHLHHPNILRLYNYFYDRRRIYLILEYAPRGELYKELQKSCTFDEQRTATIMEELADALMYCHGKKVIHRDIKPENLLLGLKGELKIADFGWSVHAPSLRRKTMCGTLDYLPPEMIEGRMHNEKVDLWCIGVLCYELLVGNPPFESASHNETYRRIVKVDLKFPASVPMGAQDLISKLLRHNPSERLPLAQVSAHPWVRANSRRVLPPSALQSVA

Compound | IC50 [1] | IC50 [2] | IC50 [3] | IC50 [4] | IC50 [5] | IC50 [6]
CS(=O)(=O)Nc1ccc(-c2ccnc3[nH]ccc23)cc1 | 794 nM | 158 nM |  |  |  | 
NCCNS(=O)(=O)c1ccc(-c2ccnc3[nH]ccc23)cc1 | 251 nM | 39.8 nM | 631 nM | 20 nM |  | 
c1ccc(-c2ccnc3[nH]ccc23)cc1 | 3980 nM | 3160 nM |  |  |  | 
CNCCNS(=O)(=O)c1ccc(-c2ccnc3[nH]ccc23)cc1 | 316 nM | 31.6 nM |  |  |  | 
O=S(=O)(NC1CNC1)c1ccc(-c2ccnc3[nH]ccc23)cc1 | 31.6 nM | 39.8 nM |  |  |  | 
NS(=O)(=O)c1cccc(-c2ccnc3[nH]ccc23)c1 | 1260 nM | 5010 nM |  |  |  | 
NC(=O)c1ccc(-c2ccnc3[nH]ccc23)cc1 | 398 nM | 631 nM |  |  |  | 
NS(=O)(=O)c1ccc(-c2ccnc3[nH]ccc23)cc1 | 158 nM | 316 nM |  |  |  | 
NCCNS(=O)(=O)c1ccc(-c2ccnc3[nH]c(CC(N)=O)cc23)cc1 | 158 nM | 20 nM | 3980 nM | 10000 nM |  | 
O=S(=O)(c1ccc(-c2ccnc3[nH]ccc23)cc1)N1CCCC1 | 1260 nM | 251 nM |  |  |  | 

Second part, the compound after the results:

IC50 [1] | IC50 [2] | IC50 [3] | IC50 [4] | IC50 [5] | IC50 [6] | Compound
50.1 nM | 79.4 nM |  |  |  |  | O=S1(=O)CCC(NS(=O)(=O)c2ccc(-c3ccnc4[nH]ccc34)cc2)CC1
126 nM | 20 nM | 316 nM | 316 nM |  |  | Cc1cc2c(-c3ccc(S(=O)(=O)NCCN)cc3)ccnc2[nH]1
12.6 nM | 20 nM | 50.1 nM |  |  |  | Cc1cc2c(-c3ccc(S(=O)(=O)NC4CCS(=O)(=O)CC4)cc3)ccnc2[nH]1
1000 nM | 39.8 nM | 501 nM |  |  |  | Cc1cc2c(-c3ccc(S(=O)(=O)N(C)C4CCS(=O)(=O)CC4)cc3)ccnc2[nH]1
316 nM | 20 nM | 501 nM |  |  |  | Cc1cc2c(-c3ccc(S(=O)(=O)NCCO)cc3)ccnc2[nH]1
7940 nM | 316 nM | 2000 nM |  |  |  | Cc1cc2c(-c3ccc(N(C)S(C)(=O)=O)cc3)ccnc2[nH]1
3980 nM | 63.1 nM | 1000 nM |  |  |  | Cc1cc2c(-c3ccc(NS(C)(=O)=O)cc3)ccnc2[nH]1
3160 nM | 39.8 nM |  | > 10000 nM | > 25100 nM | 1580 nM | Cc1cc2c(-c3ccc(S(=O)(=O)N(C)CCO)cc3)ccnc2[nH]1
126 nM | 15.8 nM | 2000 nM |  |  |  | Cc1cc2c(-c3ccc(NS(=O)(=O)CCN)cc3)ccnc2[nH]1
794 nM | 200 nM |  |  |  |  | CN(C)CCNS(=O)(=O)c1ccc(-c2ccnc3[nH]ccc23)cc1
